The numbers were not newly measured in publication PMC4411882, “Developmental Potential for Endomorphin Opioidmimetic Drugs” (International Journal of Medicinal Chemistry, 2012), which cites them from elsewhere.

Read-outs that look alike come from different tables or passages of the source. Where a SMILES comes first, the peptide text is derived from it. [ ]: non-standard residue; d: D form. The star is where a group is joined. Dmt = Cc1cc(O)cc(C)c1C[CH](N)C(=O)O; NHPh = c1ccc(N*)cc1 Where only a bound is given, the exact number is not on record here.

The term IC50 denotes the concentration that gives 50% inhibition.

Data set [1] concerns the target T1, δ-opioid receptor (Rattus norvegicus, UniProt P33533). More on the design: gene Oprd1. The settings on record: read-out: Kiδ.
Data set [2] concerns the target T2, μ-opioid receptor (Rattus norvegicus, UniProt P33535). On the set-up: gene Oprm1. Particulars: read-out: Kiμ.
Data set [3] addresses T2, μ-opioid receptor. On the set-up: gene Oprm1; rat brain P2 synaptosomal preparations; species or system rat brain P2 synaptosomal preparations. The settings on record: read-out: Kiμ.
The target of another data set is T3, δ-opioid receptor (MVD) (Mus musculus, UniProt P32300).
T3 construct: gene Oprd1; mouse vas deferens (MVD) bioassay
More on the design: species or system mouse vas deferens. The text has this:
(§1) Therefore, we substituted hydrophobic groups in lieu of the phenethyl group to develop the class of H-Dmt-Pro-Phe-NH-X ligands (Figure 1).

The target in a further data set is T4, μ-opioid receptor (GPI) (Cavia porcellus, UniProt P97266).
T4 construct: gene OPRM1; guinea pig ileum (GPI) bioassay
On the set-up: species or system guinea pig ileum.
From the text: as §1

Data set [4] addresses T1, δ-opioid receptor. On the set-up: gene Oprd1; rat brain P2 synaptosomal preparations; species or system rat brain P2 synaptosomal preparations. The settings on record: read-out: Kiδ.

T1 sequence (P33533 whole entry): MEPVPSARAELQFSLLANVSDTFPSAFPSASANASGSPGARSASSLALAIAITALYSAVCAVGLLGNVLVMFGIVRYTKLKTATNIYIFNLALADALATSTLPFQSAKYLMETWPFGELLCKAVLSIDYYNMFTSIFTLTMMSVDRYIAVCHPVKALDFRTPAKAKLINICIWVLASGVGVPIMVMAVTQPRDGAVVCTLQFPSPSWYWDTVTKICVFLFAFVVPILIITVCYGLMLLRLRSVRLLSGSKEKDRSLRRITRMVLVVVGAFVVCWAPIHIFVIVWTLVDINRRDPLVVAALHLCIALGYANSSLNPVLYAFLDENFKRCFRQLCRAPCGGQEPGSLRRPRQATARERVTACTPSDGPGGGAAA
T4 sequence (P97266 whole entry): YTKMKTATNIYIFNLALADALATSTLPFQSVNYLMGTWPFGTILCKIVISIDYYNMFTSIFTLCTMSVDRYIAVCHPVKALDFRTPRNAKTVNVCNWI
T3 sequence (P32300 whole entry): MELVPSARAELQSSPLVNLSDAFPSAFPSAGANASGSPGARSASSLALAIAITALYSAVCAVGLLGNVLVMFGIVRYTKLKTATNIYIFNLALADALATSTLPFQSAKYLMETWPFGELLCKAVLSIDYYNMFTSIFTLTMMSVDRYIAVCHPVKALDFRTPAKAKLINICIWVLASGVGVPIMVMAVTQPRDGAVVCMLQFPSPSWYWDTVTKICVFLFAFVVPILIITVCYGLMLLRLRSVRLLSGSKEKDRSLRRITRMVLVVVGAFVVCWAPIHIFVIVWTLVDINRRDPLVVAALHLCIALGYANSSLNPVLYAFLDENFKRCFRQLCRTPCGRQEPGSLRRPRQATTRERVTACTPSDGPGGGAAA
T2 sequence (P33535 whole entry): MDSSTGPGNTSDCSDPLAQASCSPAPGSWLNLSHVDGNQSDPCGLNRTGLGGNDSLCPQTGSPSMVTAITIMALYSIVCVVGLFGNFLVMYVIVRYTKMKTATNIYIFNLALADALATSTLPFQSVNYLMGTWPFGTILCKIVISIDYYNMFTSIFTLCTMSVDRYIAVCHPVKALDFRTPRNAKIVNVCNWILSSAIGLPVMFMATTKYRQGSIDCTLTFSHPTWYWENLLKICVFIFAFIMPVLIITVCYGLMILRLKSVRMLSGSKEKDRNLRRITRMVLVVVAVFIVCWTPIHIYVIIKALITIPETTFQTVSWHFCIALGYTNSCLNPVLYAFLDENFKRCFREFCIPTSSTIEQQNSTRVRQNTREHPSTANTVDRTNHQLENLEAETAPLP

For the compound `CNC(=O)C(N)Cc1c(C)cc(O)cc1C` (stereo not shown) [H-Dmt-NH-CH3], the Ki was 460 nM at δ-opioid receptor [1] and 7.45 nM on μ-opioid receptor [2].
In the case of `Cc1cc(C)cc(C[C@H](NC(=O)[C@@H]2CCCN2C(=O)[C@@H](N)Cc2c(C)cc(O)cc2C)C(=O)N[C@@H](Cc2ccccc2)C(N)=O)c1` [compound 41, H-Dmt-Pro-^3,5Dmp-Phe-NH2], the Ki on μ-opioid receptor [3] is 0.11 nM; at δ-opioid receptor [4], 11.6 nM. Also, the half-maximal inhibitory concentration (IC50) at δ-opioid receptor (MVD) is over 10000 nM; on μ-opioid receptor (GPI) it was 14.4 nM.
With `Cc1cc(O)cc(C)c1C[C@H](N)C(=O)N1CCC[C@H]1C(=O)N[C@@H](Cc1ccccc1)C(=O)Nc1cccnc1` [compound 26, H-Dmt-Pro-Phe-NH-3-Pyr], the Ki was 0.17 nM at μ-opioid receptor [3] and 287 nM on δ-opioid receptor [4]. In addition, the IC50 was over 10000 nM on δ-opioid receptor (MVD) and 72.8 nM at μ-opioid receptor (GPI).
H-Dmt-Pro-Mmp-Phe-NH2 [compound 40]: the results for the Ki at μ-opioid receptor [3] and at δ-opioid receptor [4] were 0.18 nM and 4.61 nM, respectively. Besides, the results for the IC50 on δ-opioid receptor (MVD) and at μ-opioid receptor (GPI) were over 10000 nM and 0.16 nM, respectively.
H-Mmt-Pro-Phe-Phe-NH2 [compound 34]: the Ki at μ-opioid receptor [3] was 0.132 nM; on δ-opioid receptor [4], 529 nM. Further, the figures for the IC50 at δ-opioid receptor (MVD) and at μ-opioid receptor (GPI) were 28.7 nM and 0.924 nM, respectively.
With `Cc1cc(O)cc(C)c1CC(N)C(=O)N1Cc2ccccc2CC1C(=O)NCCCCc1[nH]c(=O)c(CCCCNC(=O)C2Cc3ccccc3CN2C(=O)C(N)Cc2c(C)cc(O)cc2C)nc1C` (stereo not drawn) [compound 62, 3,6-bis[Dmt-Tic-NH(CH2)4]-5-methyl-2(1H)-pyrazinone], the Ki on μ-opioid receptor [3] is 1.74 nM; on δ-opioid receptor [4] it was 0.323 nM. The IC50 at δ-opioid receptor (MVD) and on μ-opioid receptor (GPI) was over 10000 nM in each case.
Consider `Cc1cccc(C)c1C[C@H](NC(=O)[C@@H]1CCCN1C(=O)[C@@H](N)Cc1c(C)cc(O)cc1C)C(=O)N[C@@H](Cc1ccccc1)C(N)=O` [compound 42, H-Dmt-Pro-Dmp-Phe-NH2], for which the Ki was 0.069 nM on μ-opioid receptor [3] and 2.27 nM at δ-opioid receptor [4]. The IC50 was over 10000 nM on δ-opioid receptor (MVD) and 0.12 nM at μ-opioid receptor (GPI).
Consider `Cc1cc(O)cc(C)c1C[C@H](N)C(=O)NCCCCNC(=O)[C@@H](N)Cc1c(C)cc(O)cc1C` [compound 52, Dmt-NH-(CH2)4-NH-Dmt], for which the figures for the Ki at μ-opioid receptor [3] and on δ-opioid receptor [4] were 0.041 nM and 53.4 nM, respectively. In addition, the IC50 was over 10000 nM on δ-opioid receptor (MVD) and 5.33 nM at μ-opioid receptor (GPI).
As for `Cc1cc(O)cc(C)c1CC(N)C(=O)N1CCCC1C(=O)NC(Cc1ccccc1)C(N)=O` (stereo not drawn) [compound 21, H-Dmt-Pro-Phe-NH2] (H-[Dmt]-Pro-Phe-NH2; configuration not given here), the Ki at μ-opioid receptor [3] is 0.12 nM; at δ-opioid receptor [4] it was 53.2 nM. For the same compound, the IC50 on δ-opioid receptor (MVD) is 113 nM; on μ-opioid receptor (GPI), 2.33 nM.
As for `Cc1cc(O)cc(C)c1CC(N)C(=O)NCCCc1[nH]c(=O)c(CCCNC(=O)C(N)Cc2c(C)cc(O)cc2C)nc1C` (stereo not shown) [compound 57, 3,6-bis[Dmt-NH(CH2)3]-5-methyl-2(1H)-pyrazinone], the results for the Ki at μ-opioid receptor [3] and at δ-opioid receptor [4] were 0.042 nM and 13.2 nM, respectively. For the same compound, the IC50 at δ-opioid receptor (MVD) is over 10000 nM; at μ-opioid receptor (GPI), 1.33 nM.
As to `Cc1cc(O)cc(C)c1C[C@H](N)C(=O)NCCCCCCNC(=O)[C@@H](N)Cc1c(C)cc(O)cc1C` [compound 53, Dmt-NH-(CH2)6-NH-Dmt], the Ki at μ-opioid receptor [3] was 0.053 nM; at δ-opioid receptor [4], 46.1 nM. For the same compound, the IC50 at δ-opioid receptor (MVD) was over 10000 nM; on μ-opioid receptor (GPI) it was 3.08 nM.
Regarding `Cc1cc(O)cc(C)c1C[C@H](N)C(=O)N1CCC[C@H]1C(=O)N[C@@H](Cc1ccccc1)C(=O)N[C@@H](Cc1ccccc1)C(N)=O` [compound 20, H-Dmt-Pro-Phe-Phe-NH2, [Dmt^1]EM-2], the Ki was 0.15 nM at μ-opioid receptor [3] and 28.2 nM on δ-opioid receptor [4]. The IC50 at δ-opioid receptor (MVD) was 1.87 nM; on μ-opioid receptor (GPI), 0.07 nM.
For the compound `Cc1cc(O)cc(C)c1CC(N)C(=O)N1Cc2ccccc2CC1C(=O)NCCc1[nH]c(=O)c(CCNC(=O)C2Cc3ccccc3CN2C(=O)C(N)Cc2c(C)cc(O)cc2C)nc1C` (stereo not drawn) [compound 60, 3,6-bis[Dmt-Tic-NH(CH2)2]-5-methyl-2(1H)-pyrazinone], the results for the Ki on μ-opioid receptor [3] and on δ-opioid receptor [4] were 2.83 nM and 0.095 nM, respectively. The IC50 at δ-opioid receptor (MVD) and at μ-opioid receptor (GPI) was over 10000 nM each time.
On to `Cc1cc(O)cc(C)c1C[C@H](N)C(=O)N1CCC[C@H]1C(=O)N[C@@H](Cc1ccccc1)C(=O)Nc1ccccc1` [compound 24, H-Dmt-Pro-Phe-NH-Ph] (H-[Dmt]-Pro-Phe-NHPh), for which the values for the Ki at μ-opioid receptor [3] and on δ-opioid receptor [4] were 1.11 nM and 20.6 nM, respectively. Moreover, the IC50 on δ-opioid receptor (MVD) is over 10000 nM; on μ-opioid receptor (GPI), 37.7 nM.
Take `CCc1cc(O)cc(C)c1C[C@H](N)C(=O)N1CCC[C@H]1C(=O)N[C@@H](Cc1ccccc1)C(=O)N[C@@H](Cc1ccccc1)C(N)=O` [compound 35, H-Emt-Pro-Phe-Phe-NH2]: the figures for the Ki on μ-opioid receptor [3] and on δ-opioid receptor [4] were 0.063 nM and 55.7 nM, respectively. The IC50 is 1.08 nM at δ-opioid receptor (MVD) and 0.623 nM at μ-opioid receptor (GPI).
As to `Cc1cc(O)cc(C)c1C[C@H](N)C(=O)NCCCCCCCCNC(=O)[C@@H](N)Cc1c(C)cc(O)cc1C` [compound 54, Dmt-NH-(CH2)8-NH-Dmt], the results for the Ki on μ-opioid receptor [3] and on δ-opioid receptor [4] were 0.19 nM and 14.8 nM, respectively. The IC50 is over 10000 nM on δ-opioid receptor (MVD) and 53.7 nM on μ-opioid receptor (GPI).
In the case of `Cc1cc(O)cc(C)c1C[C@H](N)C(=O)N1CCC[C@H]1C(=O)N[C@@H](Cc1ccccc1)C(=O)Nc1cccc2cnccc12` [compound 33, H-Dmt-Pro-Phe-NH-5-Isq], the values for the Ki at μ-opioid receptor [3] and on δ-opioid receptor [4] were 0.19 nM and 98.3 nM, respectively. In addition, the values for the IC50 on δ-opioid receptor (MVD) and on μ-opioid receptor (GPI) were over 10000 nM and 0.94 nM, respectively.
In the case of `C=CCNC(Cc1c(C)cc(O)cc1C)C(=O)NCCCCCCNC(=O)C(Cc1c(C)cc(O)cc1C)NCC=C` (stereo not shown) [compound 49, 1,6-bis[N-allyl-Dmt-NH]hexane], the results for the Ki at μ-opioid receptor [3] and on δ-opioid receptor [4] were 12.4 nM and 51.5 nM, respectively. For the same compound, the IC50 on δ-opioid receptor (MVD) and on μ-opioid receptor (GPI) was over 10000 nM each time.
As for `Cc1cc(O)cc(C)c1C[C@H](N)C(=O)NCCNC(=O)[C@@H](N)Cc1c(C)cc(O)cc1C` [compound 51, Dmt-NH-(CH2)2-NH-Dmt], the Ki at μ-opioid receptor [3] is 1.43 nM; on δ-opioid receptor [4], 116 nM. Further, the IC50 was over 10000 nM on δ-opioid receptor (MVD) and 2840 nM at μ-opioid receptor (GPI).
Consider `Cc1cc(O)cc(C)c1CC(N)C(=O)N1Cc2ccccc2CC1C(=O)NCc1[nH]c(=O)c(CNC(=O)C2Cc3ccccc3CN2C(=O)C(N)Cc2c(C)cc(O)cc2C)nc1C` (stereo not drawn) [compound 59, 3,6-bis[Dmt-Tic-NH-CH2]-5-methyl-2(1H)-pyrazinone], for which the Ki at μ-opioid receptor [3] was 3.76 nM; at δ-opioid receptor [4], 0.163 nM. The IC50 at δ-opioid receptor (MVD) and on μ-opioid receptor (GPI) was over 10000 nM throughout.
With `Cc1cc(O)cc(C)c1C[C@H](N)C(=O)N1CCC[C@H]1C(=O)N[C@@H](Cc1c[nH]c2ccccc12)C(=O)N[C@@H](Cc1ccccc1)C(N)=O` [compound 19, H-Dmt-Pro-Trp-Phe-NH2, [Dmt^1]EM-1], the Ki on μ-opioid receptor [3] was 0.054 nM; on δ-opioid receptor [4] it was 5.6 nM. Moreover, the figures for the IC50 at δ-opioid receptor (MVD) and at μ-opioid receptor (GPI) were over 10000 nM and 0.27 nM, respectively.
Turning to H-Dit-Pro-Phe-Phe-NH2 [compound 38], the Ki is 2.29 nM on μ-opioid receptor [3] and 105 nM on δ-opioid receptor [4]. In addition, the IC50 was over 10000 nM at δ-opioid receptor (MVD) and 299 nM on μ-opioid receptor (GPI).
As for `Cc1cc(O)cc(C)c1CC(N)C(=O)NCc1[nH]c(=O)c(CNC(=O)C(N)Cc2c(C)cc(O)cc2C)nc1C` (stereo not shown) [compound 55, 3,6-bis[Dmt-NH-CH2]-5-methyl-2(1H)-pyrazinone], the Ki was 1.16 nM on μ-opioid receptor [3] and 15.7 nM on δ-opioid receptor [4]. Also, the IC50 was over 10000 nM on δ-opioid receptor (MVD) and 1700 nM at μ-opioid receptor (GPI).
Consider `Cc1cc(O)cc(C)c1C[C@H](N)C(=O)N1CCC[C@H]1C(=O)N[C@@H](Cc1ccccc1)C(=O)Nc1ccccn1` [compound 27, H-Dmt-Pro-Phe-NH-2-Pyr], for which the figures for the Ki on μ-opioid receptor [3] and at δ-opioid receptor [4] were 0.13 nM and 157 nM, respectively. Further, the IC50 is over 10000 nM at δ-opioid receptor (MVD) and 15 nM on μ-opioid receptor (GPI).
With `Cc1cc(O)cc(C)c1C[C@H](N)C(=O)N1CCC[C@H]1C(=O)N[C@@H](Cc1ccccc1)C(=O)Nc1cnc2ccccc2c1` [compound 29, H-Dmt-Pro-Phe-NH-3-Qln], the Ki was 0.33 nM on μ-opioid receptor [3] and 190 nM on δ-opioid receptor [4]. Further, the IC50 is over 10000 nM at δ-opioid receptor (MVD) and 9.14 nM at μ-opioid receptor (GPI).
`C=CCN[C@@H](Cc1c(C)cc(O)cc1C)C(=O)N1CCC[C@H]1C(=O)N[C@@H](Cc1ccccc1)C(=O)N[C@@H](Cc1ccccc1)C(N)=O` [compound 48, [N-allyl-Dmt^1]EM-2]: the Ki on μ-opioid receptor [3] is 0.45 nM; at δ-opioid receptor [4], 560 nM. In addition, the IC50 at δ-opioid receptor (MVD) and on μ-opioid receptor (GPI) was over 10000 nM each time.
For `C=CCNC(Cc1c(C)cc(O)cc1C)C(=O)NCCCc1[nH]c(=O)c(CCCNC(=O)C(Cc2c(C)cc(O)cc2C)NCC=C)nc1C` (stereo not shown) [compound 50, 3,6-bis[N-allyl-Dmt-NH-propyl]-5-methyl-2(1H)-pyrazinone], the values for the Ki on μ-opioid receptor [3] and on δ-opioid receptor [4] were 6.94 nM and 77.8 nM, respectively. The IC50 on δ-opioid receptor (MVD) and at μ-opioid receptor (GPI) was over 10000 nM in each case.
